What was measured:
[1] = target: c-Kit (Homo sapiens (Human), UniProt P10721); experiment: Enzyme inhibition activity test for kinases other than Trk (selectivity test): c-Kit; format: biochemical; conditions: test concentration 3 μM; read-out: Inhibition Rate (%) c-Kit
Experimental: (§1) A test substance (present compound or comparative compound) was dissolved in dimethylsulfoxide and further diluted with dimethylsulfoxide to prepare a solution having a concentration of 100 times the test concentration of 3 μM. The solution was further diluted to 25-fold with an assay buffer (20 mM HEPES, 0.01% Triton X-100, 2 mM DTT, pH 7.5) to obtain a test substance solution. In a similar manner a positive control substance solution was prepared with a positive control substance.
(§2) A 4-times concentration solution (5 μL) of the test substance prepared with the assay buffer, 5 μL of a 4-times concentration solution of substrate/ATP/metal (Mg) and 10 μL of a 2-times concentration solution of kinase were mixed in a well of a polypropylene 384-well plate and allowed to react at room temperature for 1 hour. The reaction was terminated by adding 60 μL of a Termination Buffer (QuickScout Screening Assist MSA; Carna Biosciences). The substrate peptide and the phosphorylated peptide in the reaction solution were separated and quantified. The kinase reaction was assessed from the product ratio (P/(P+S)) calculated from the height (S) of the peak of the substrate peptide and the height (P) of the peak of the phosphorylated peptide. Other kinases used in the kinase selectivity experiments were, for example, Abl, c-Met, b-Raf, c-Kit and KDR. The following Table 2 indicates substrates, substrate concentrations, ATP concentrations and positive control substances used in respective kinase enzyme inhibition activity tests.
(§3) The inhibition rate was calculated from the average signal intensity of the test wells containing respective test substances provided that the average signal intensity of control wells each containing all reaction components was 0% inhibition and the average signal intensity of background wells (without addition of the enzyme) was 100% inhibition.

[2] = target: KDR (Homo sapiens (Human), UniProt P35968); experiment: Enzyme inhibition activity test for kinases other than Trk (selectivity test): KDR; format: biochemical; conditions: test concentration 3 μM; read-out: Inhibition Rate (%) KDR
Experimental: as §1, §2, §3

[3] = target: Abl (Homo sapiens (Human), UniProt P00519); experiment: Enzyme inhibition activity test for kinases other than Trk (selectivity test): Abl; format: biochemical; conditions: test concentration 3 μM; read-out: Inhibition Rate (%) Abl
Chain of Abl (P00519 whole entry): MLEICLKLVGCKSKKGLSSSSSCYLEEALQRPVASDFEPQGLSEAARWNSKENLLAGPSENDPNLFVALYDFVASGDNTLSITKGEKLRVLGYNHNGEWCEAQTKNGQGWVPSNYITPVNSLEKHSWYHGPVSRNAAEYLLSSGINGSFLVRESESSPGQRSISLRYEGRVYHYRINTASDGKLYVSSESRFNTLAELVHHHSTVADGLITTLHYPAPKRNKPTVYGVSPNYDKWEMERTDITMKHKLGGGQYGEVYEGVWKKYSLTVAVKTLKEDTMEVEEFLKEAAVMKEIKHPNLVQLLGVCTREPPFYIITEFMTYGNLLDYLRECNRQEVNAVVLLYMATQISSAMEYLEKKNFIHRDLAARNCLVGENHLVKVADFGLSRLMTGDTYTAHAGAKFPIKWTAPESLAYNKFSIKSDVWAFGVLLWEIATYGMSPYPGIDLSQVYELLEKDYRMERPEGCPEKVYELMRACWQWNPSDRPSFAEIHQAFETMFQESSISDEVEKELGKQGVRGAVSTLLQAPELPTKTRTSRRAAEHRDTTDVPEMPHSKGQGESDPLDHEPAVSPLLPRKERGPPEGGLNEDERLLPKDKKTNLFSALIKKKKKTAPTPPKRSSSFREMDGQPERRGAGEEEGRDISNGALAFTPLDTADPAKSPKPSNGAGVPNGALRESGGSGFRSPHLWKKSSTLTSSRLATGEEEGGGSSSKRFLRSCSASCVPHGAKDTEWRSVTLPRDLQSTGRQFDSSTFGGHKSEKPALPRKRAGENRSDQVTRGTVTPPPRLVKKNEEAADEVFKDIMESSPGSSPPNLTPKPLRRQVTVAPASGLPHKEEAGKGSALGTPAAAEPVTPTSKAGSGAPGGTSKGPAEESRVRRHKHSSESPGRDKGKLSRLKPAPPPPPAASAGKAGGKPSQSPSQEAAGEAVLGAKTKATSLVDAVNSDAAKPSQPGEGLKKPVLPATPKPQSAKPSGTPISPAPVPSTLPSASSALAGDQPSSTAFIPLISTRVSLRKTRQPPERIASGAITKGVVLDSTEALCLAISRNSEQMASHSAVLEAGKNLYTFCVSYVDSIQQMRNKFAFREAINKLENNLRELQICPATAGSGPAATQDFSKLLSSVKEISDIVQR
Experimental: as §1, §2, §3

[4] = target: b-Raf (Homo sapiens (Human), UniProt P15056); experiment: Enzyme inhibition activity test for kinases other than Trk (selectivity test): b-Raf; format: biochemical; conditions: test concentration 3 μM; read-out: Inhibition Rate (%) b-Raf
Chain of b-Raf (P15056 whole entry): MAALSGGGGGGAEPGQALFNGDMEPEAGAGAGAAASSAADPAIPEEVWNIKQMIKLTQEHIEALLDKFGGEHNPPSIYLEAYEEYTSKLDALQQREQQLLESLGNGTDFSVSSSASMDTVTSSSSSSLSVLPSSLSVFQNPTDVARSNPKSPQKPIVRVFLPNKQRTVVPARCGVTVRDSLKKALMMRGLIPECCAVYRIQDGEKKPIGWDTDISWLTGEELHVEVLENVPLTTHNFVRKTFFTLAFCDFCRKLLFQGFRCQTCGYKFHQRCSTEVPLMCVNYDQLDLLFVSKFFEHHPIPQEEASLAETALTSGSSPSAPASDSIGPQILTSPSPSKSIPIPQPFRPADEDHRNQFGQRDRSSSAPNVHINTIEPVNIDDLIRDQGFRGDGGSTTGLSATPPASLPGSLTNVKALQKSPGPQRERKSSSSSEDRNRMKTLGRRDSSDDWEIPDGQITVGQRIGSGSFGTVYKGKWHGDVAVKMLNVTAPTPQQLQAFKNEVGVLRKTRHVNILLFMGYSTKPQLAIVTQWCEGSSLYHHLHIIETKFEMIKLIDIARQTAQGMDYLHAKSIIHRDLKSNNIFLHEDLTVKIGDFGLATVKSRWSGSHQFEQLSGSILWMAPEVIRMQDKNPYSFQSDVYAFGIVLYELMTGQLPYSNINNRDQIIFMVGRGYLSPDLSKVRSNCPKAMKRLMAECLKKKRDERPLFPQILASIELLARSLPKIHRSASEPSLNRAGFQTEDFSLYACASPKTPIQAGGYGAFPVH
Experimental: as §1, §2, §3

[5] = target: c-Met (Homo sapiens (Human), UniProt P08581); experiment: Enzyme inhibition activity test for kinases other than Trk (selectivity test): c-Met; format: biochemical; conditions: test concentration 3 μM; read-out: Inhibition Rate (%) c-Met
Chain of c-Met (P08581 25-1390): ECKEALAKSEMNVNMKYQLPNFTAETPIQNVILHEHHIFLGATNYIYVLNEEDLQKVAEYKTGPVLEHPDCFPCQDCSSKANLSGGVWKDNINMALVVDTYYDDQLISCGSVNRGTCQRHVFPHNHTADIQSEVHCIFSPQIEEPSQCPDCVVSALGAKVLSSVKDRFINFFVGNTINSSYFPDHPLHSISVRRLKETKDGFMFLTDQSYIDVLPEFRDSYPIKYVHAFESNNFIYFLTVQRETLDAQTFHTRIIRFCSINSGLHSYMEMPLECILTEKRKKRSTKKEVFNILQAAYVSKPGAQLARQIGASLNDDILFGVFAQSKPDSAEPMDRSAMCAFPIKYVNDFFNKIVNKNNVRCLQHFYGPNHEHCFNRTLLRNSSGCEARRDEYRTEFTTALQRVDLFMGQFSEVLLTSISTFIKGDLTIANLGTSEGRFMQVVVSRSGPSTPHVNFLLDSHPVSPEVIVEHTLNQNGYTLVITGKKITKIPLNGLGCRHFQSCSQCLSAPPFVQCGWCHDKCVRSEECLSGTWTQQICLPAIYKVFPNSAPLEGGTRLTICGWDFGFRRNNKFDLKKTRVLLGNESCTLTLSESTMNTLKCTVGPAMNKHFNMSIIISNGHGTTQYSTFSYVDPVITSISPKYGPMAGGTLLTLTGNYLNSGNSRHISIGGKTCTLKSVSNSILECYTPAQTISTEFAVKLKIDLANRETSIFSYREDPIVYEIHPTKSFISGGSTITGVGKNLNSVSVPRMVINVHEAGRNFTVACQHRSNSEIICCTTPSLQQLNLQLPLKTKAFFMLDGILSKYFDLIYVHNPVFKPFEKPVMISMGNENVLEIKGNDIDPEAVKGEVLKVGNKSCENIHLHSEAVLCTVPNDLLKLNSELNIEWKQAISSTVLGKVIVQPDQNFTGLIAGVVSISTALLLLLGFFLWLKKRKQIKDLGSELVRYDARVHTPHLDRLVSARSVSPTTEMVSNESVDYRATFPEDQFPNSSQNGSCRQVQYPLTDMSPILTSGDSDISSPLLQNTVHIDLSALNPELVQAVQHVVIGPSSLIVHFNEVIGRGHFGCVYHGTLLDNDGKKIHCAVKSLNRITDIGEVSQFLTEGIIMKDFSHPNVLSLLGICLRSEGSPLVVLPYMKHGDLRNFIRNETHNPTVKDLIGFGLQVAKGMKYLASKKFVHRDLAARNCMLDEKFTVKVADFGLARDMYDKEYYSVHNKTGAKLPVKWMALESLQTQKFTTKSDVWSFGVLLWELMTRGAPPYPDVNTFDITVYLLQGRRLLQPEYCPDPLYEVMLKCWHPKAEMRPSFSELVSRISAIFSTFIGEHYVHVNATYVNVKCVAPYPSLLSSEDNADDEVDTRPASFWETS
Experimental: as §1, §2, §3

[6] = test system: NGF-induced vascular hyper permeability; experiment: Suppression of rat NGF-induced vascular hyper permeability (in vivo test, Evans Blue); conditions: oral, 12 hours after administration, read-out: Rates of Suppression for Vascular Hyper Permeability (%)
Experimental: TrkA-inhibiting activity of the present compound was evaluated in vivo. The present compound dissolved in a medium was orally administered (adminstered volume: 5 mL/kg) to male CD(SD)IGS rats (7- to 9-week old, Charles River laboratories Japan, Inc.) shaved on the back. A medium was orally administered (adminstered volume: 5 mL/kg) to the control and normal groups. After 6 or 12 hours of administration, 3 μg/mL of a NGF (Mouse 2.5s, Natural, Invitrogen) solution prepared in 0.1% BSA (Sigma-Aldrich)-containing saline was intracutaneously administered (dose; 50 μL/site) at 3 sites on the back of animals under halothane anesthesia. For the normal group, 0.1% BSA-containing saline was intracutaneously administered (dose; 50 μL/site) at 3 sites on the back. Immediately after intracutaneous administration, 1% Evans Blue (Tokyo Chemical Industry Co., Ltd.) was administered intravenously from tail (adminstered volume: 3 mL/kg). After 10 minutes of administration, the animals were sacrificed by bleeding due to incision of the abdominal aorta. The sites of intracutaneous administration on the back (3 sites) were excised and the skin samples were respectively transferred to the wells in a 48-well plate (Asahi Glass Co., Ltd.). Formamide (0.8 mL/well) was added to the plate and the plate was sealed and incubated overnight at 60° C. The formamide extraction solution (200 μL) was transferred to a 96-well plate and the absorbance (wavelength: 620 nm) of Evans Blue extracted in formamide was measured on an absorbance microplate reader (SpectraMAX 190, Molecular Devices Japan, K.K.). Standard samples of Evans Blue dissolved in formamide (0, 0.78, 1.56, 3.13, 6.25, 12.5, 25 and 50 μg/mL) were measured at the same time for the absorbance (wavelength: 620 nm) to generate a calibration curve. Based on the calibration curve and the absorbances of samples, the concentrations of Evans Blue in the sample was calculated. The concentrations of Evans Blue for three skin samples collected from one aminal were averaged to obtain the vale for the animal. The rate of suppression for rat NGF-induced vascular hyper permeability of the present compound was calculated according to the following Equation 4: Suppression rate (%)=(1−(AX−AN)/(AC−AN)}×100 Equation 4
wherein AX: the concentration of Evans Blue of the test compound (an average value of 3 samples from one animal);
AN: the concentration of Evans Blue of the normal group (an average value of 3 samples from one animal);
AC: the concentration of Evans Blue of the control group (an average value of 3 samples from one animal).

[7] = target: TrkA (Homo sapiens (Human), UniProt P04629); experiment: TrkA kinase-inhibiting activity using human TrkA expressing cells (CellSenser TrkA-NFAT-bla CHO-K1, NGF-stimulated reporter assay); format: cell-based; conditions: CHO-K1 cells expressing human TrkA and NFAT-bla; NGF 50 ng/ml; read-out: TrkA inhibitory activity (IC50; μM)
Chain of TrkA (P04629 33-796): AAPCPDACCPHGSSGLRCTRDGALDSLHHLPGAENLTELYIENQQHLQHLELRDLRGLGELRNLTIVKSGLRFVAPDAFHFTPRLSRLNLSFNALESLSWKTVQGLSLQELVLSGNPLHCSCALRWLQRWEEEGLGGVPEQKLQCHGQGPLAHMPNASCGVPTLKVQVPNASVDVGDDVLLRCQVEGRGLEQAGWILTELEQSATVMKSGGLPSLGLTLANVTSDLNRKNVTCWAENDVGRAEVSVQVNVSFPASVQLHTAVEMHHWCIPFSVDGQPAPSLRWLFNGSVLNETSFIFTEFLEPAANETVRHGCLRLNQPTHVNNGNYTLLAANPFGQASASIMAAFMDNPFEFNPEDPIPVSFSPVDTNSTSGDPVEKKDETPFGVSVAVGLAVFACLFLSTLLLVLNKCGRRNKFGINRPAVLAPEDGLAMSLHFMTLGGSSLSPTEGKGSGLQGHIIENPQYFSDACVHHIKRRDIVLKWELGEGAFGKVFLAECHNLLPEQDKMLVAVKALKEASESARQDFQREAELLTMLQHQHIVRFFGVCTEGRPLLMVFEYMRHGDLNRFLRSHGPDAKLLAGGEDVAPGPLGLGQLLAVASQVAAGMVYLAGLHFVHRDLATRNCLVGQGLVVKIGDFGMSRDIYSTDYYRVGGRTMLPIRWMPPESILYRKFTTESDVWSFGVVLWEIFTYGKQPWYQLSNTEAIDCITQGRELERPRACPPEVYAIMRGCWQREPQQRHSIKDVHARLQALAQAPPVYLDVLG
Experimental: TrkA kinase-inhibiting activity in cell systems was measured using CHO-K1 cells expressing human TrkA and NFAT-bla (CellSenser™ TrkA-NFAT-bla CHO-K1 cells, Invitrogen).
On the day before the assay, CellSenser™ TrkA-NFAT-bla CHO-K1 cells were suspended in an assay medium (Opti-MEM1 Reduced Serum Medium (Invitrogen) containing 0.5% dialysed fetal bovine serum (Invitrogen), 0.1 mM nonessential amino acids (Invitrogen), 1 mM sodium pyruvate (Invitrogen) and antibiotics (100 U/mL penicillin and 100 μg/mL streptomycin (Invitrogen)) and plated at a density of 2.4×10^4 cells/40 μL/well in a 96-well clear bottom plate (Corning, Catalogue No.: 3882). In some wells were added only the assay medium at 40 μL/well (Cell-free). On the day of the assay, 10 mM of the present compound (DMSO solution) was distributed in a 96-well plate (Costar, Catalogue No.: 3363) and serially diluted with DMSO with the geometrical ratio of 3. The serial dilutions were diluted with the assay medium to 100-fold to prepare a solution of the present compound with a 10-times concentration (DMSO concentration: 1%). To the plate where cells were plated was added the present compound at 5 μL/well and the plate was incubated in a CO2 incubator with 5% CO2, 95% Air at 37° C. for 30 minutes. For a control and a blank, the assay medium containing 1% DMSO was added at 5 μL/well in place of the solution of the present compound. Subsequently the assay medium containing NGF (Mouse 2.5s, Natural, Invitrogen) was added to the plate at 5 µL/well (final concentration of NGF: 50 ng/ml) and the plate was incubated in a CO2 incubator with 5% CO2, 95% Air at 37° C. for 5 hours. For a group of blanks, the assay medium was added in place of NGF at 5 μL/well. A reporter assay detection reagent (10 μL/well) was added to the plate and the plate was then incubated in the dark at room temperature for 120 minutes. The reporter assay detection reagent was prepared from LiveBLAzer™-FRET B/G Loading Kit (Invitrogen). On an Analyst GT (Molecular Devices Japan, K.K.) the wells were irradiated with excitation light at 405 nm and the fluorescence intensities at 460 nm and 530 nm were measured. The time resolved fluorescence resonance energy transfer (TR-FRET) ratio of each well was calculated according to the following Equation 2. TR-FRET Ratio=(A460X−A460F)/(A530X−A530F) Equation 2
wherein A460X: the fluorescence intensity at 460 nm of the present compound, control or blank;
A460F: the fluorescence intensity at 460 nm of the Cell-free;
A530X: the fluorescence intensity at 530 nm of the present compound, control or blank; and
A530F: the fluorescence intensity at 530 nm of the Cell-free. […]
The IC50 value of the present compound was calculated from the inhibition curve based on the inhibition rate of the present compound at respective concentrations.

Chain of c-Kit (P10721 26-976): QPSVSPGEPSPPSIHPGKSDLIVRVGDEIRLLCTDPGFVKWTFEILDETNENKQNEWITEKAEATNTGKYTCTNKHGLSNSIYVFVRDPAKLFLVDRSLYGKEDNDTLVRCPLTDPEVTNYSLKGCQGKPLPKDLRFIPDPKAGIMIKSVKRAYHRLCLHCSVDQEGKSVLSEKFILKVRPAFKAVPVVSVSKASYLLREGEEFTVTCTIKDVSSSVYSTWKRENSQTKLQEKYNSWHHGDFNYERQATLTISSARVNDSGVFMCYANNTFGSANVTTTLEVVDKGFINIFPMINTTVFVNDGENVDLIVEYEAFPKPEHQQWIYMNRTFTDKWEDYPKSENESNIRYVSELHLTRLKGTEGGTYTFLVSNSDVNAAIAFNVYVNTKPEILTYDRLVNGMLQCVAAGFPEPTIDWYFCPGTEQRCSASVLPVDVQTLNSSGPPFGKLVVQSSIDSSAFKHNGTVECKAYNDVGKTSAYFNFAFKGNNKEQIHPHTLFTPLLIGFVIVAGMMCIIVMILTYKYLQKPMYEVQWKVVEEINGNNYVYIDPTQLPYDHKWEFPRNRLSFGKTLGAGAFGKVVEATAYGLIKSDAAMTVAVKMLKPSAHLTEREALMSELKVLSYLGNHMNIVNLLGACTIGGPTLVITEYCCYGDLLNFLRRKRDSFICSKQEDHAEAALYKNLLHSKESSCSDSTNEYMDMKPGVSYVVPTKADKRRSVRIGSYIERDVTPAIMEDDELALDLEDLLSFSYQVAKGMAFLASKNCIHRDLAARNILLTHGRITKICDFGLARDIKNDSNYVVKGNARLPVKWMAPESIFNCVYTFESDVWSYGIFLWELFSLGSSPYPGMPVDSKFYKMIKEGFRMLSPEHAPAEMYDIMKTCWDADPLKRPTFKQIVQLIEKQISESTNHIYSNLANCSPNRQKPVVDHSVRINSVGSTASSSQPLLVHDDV

| inhibition at 3 µM [1] [%] | inhibition at 3 µM [2] [%] | inhibition at 3 µM [3] [%] | inhibition at 3 µM [4] [%] | inhibition at 3 µM [5] [%] | IC50 [7] [µM] | SMILES | inhibition in vivo at 1 mg/kg [6] [%] |
| --- | --- | --- | --- | --- | --- | --- | --- |
| 28 | 5.2 | 5.6 | 36 | 11 | – | O=C(Nc1cnc(Oc2ccc(-c3cnc(N4CCCC4=O)s3)cc2)nc1)Nc1cc(C(F)(F)F)ccc1-c1cccnc1 [Example 84-3, 1-(2-{4-[2-(2-oxo-1-pyrrolidinyl)-1,3-thiazol-5-yl]phenoxy}-5-pyrimidinyl)-3-[2-(3-pyridinyl)-5-(trifluoromethyl)phenyl]urea] | 94 |
| – | – | – | – | – | 0.001 | CCCNc1ncc(-c2ccc(Oc3ncc(NC(=O)Nc4cc(C(F)(F)F)ccc4S(C)(=O)=O)cn3)cc2)s1 [Example 85-226, 1-[2-(methylsulfonyl)-5-(trifluoromethyl)phenyl]-3-(2-{4-[2-(propylamino)-1,3-thiazol-5-yl]phenoxy}-5-pyrimidinyl)urea] | 100 |
| – | – | – | – | – | 0.004 | CCCNc1ncc(-c2ccc(Oc3ncc(NC(=O)Nc4cc(F)ccc4F)cn3)cc2)s1 [Example 85-209, 1-(2,5-difluorophenyl)-3-(2-{4-[2-(propylamino)-1,3-thiazol-5-yl]phenoxy}-5-pyrimidinyl)urea] | 81 |
| – | – | – | – | – | 0.002 | CCCNc1ncc(-c2ccc(Oc3ncc(NC(=O)Nc4cc(C(F)(F)F)ccc4-n4ccc(C(F)(F)F)n4)cn3)cc2)s1 [Example 85-184, 1-(2-{4-[2-(propylamino)-1,3-thiazol-5-yl]phenoxy}-5-pyrimidinyl)-3-{5-(trifluoromethyl)-2-[3-(trifluoromethyl)-1H-pyrazol-1-yl]phenyl}urea] | 96 |
| – | – | – | – | – | 0.004 | CCCNc1ncc(-c2ccc(Oc3ncc(NC(=O)Nc4cc(C(F)(F)F)ccc4S(=O)(=O)N(C)C)cn3)cc2)s1 [Example 85-225, N,N-dimethyl-2-{[(2-{4-[2-(propylamino)-1,3-thiazol-5-yl]phenoxy}-5-pyrimidinyl)carbamoyl]amino}-4-(trifluoromethyl)benzenesulfonamide] | 94 |

Reference: patent US9242977B2, “Trk-inhibiting compound” (ONO PHARMACEUTICAL CO., LTD., priority 2012, dated 2016)
